Reference: the supplement of paper PMC8882468
Values joined by “and” are separate entries in the source; they are usually repeats but may differ in a detail not shown here. Equal values may be shown once. ± gives the standard deviation of the averaged measurements.

Key:
Experiment in all cases: CTG-3D luminescence at 96 h relative to day-0 seeding control (ratio to day 0); higher = more growth / less cytotoxicity
HCI-001 = system: HCI-001 (organoid from a triple-negative breast cancer xenograft)
Experimental: (§1)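 PDxO 3D drug screen (set 2), 8-point dose, 96 h; CTG-3D luminescence normalised to day-0 seeding control (mean of 4 wells each).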

HCI-012 = system: HCI-012 (organoid from a breast cancer xenograft)
Experimental: as §1

MDA-MB-231 = system: MDA-MB-231
Experimental: as §1

HCI-017.E2 = system: HCI-017.E2 (organoid from an ER-positive breast cancer xenograft)
Experimental: (§2)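 PDX-derived breast cancer organoids (PDxO) in 384-well Matrigel plates, 8-point dose (0.000000625-100 uM), 96 h at 37 C; CellTiter-Glo 3D luminescence normalised to the day-0 seeding control (mean of 4 technical replicates over mean of 4 day-0 wells).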

HCI-016 = system: HCI-016 (organoid from a triple-negative breast cancer xenograft)
Experimental: as §2

HCI-019 = system: HCI-019 (organoid from a triple-negative breast cancer xenograft)
Experimental: as §2

CC/C(=C(\c1ccc(O)cc1)c1ccc(OCCN(C)C)cc1)c1ccccc1 [4-hydroxytamoxifen]
CTG-3D luminescence at 96 h
Conditions | 12.5 pM | 0.00025 µM | 0.005 µM | 0.1 µM | 1 µM | 10 µM | 100 µM | 625 fM
HCI-001, days in culture: 365 | 2.24 | 2.14 | 2.59 | 3.06 | 2.55 | 1.86 | 0.0145 | 1.46
HCI-001, days in culture: 397 | 1.66 | 1.84 | 2.19 | 2.62 | 1.93 | 1.21 | 0.00832 | 1.25
HCI-001, days in culture: 401 | 1.75 | 1.39 | 1.52 | 1.38 | 1.26 | 1.52 | 0.00247 | 1.47
HCI-012, days in culture: 214 | 3.56 | 3.14 | 1.65 | 2.13 | 2.18 | 0.301 | 0.00686 | 1.93
HCI-012, days in culture: 243 | 2.35 | 2.75 | 1.8 | 2.23 | 1.49 | 1.87 | 0.00753 | 2.29
HCI-012, days in culture: 256 | 1.59 | 1.79 | 2.4 | 3.03 | 2.03 | 1.01 | -0.000283 | 2.33
HCI-012, days in culture: 284 | 2.11 | 2.32 | 1.6 | 2.02 | 1.71 | 1.47 | 0.00771 | 3.35

MDA-MB-231
Conditions | CTG-3D luminescence at 96 h
12.5 pM | 5.74 and 4.89
0.00025 µM | 5.63 and 4.98
0.005 µM | 5.56 and 5.21
0.1 µM | 5.42 and 5.04
1 µM | 5.45 and 5.21
10 µM | 4.78 and 4.53
100 µM | 0.0254 and 0.0304
625 fM | 5.5 and 5.05

O=c1[nH]cc(F)c(=O)[nH]1 [5-fluorouracil]
HCI-017.E2
Conditions | CTG-3D luminescence at 96 h
12.5 pM | 1.94 ± 0.43
0.00025 µM | 2.02 ± 0.06
0.005 µM | 1.96 ± 0.33
0.1 µM | 2.04 ± 0.22
1 µM | 2.05 ± 0.042
10 µM | 1.88 ± 0.088
100 µM | 1.64 ± 0.33
625 fM | 2.219 ± 0.0082

CTG-3D luminescence at 96 h
Conditions | 12.5 pM | 0.00025 µM | 0.005 µM | 0.1 µM | 1 µM | 10 µM | 100 µM | 625 fM
HCI-016, days in culture: 153 | 3.47 | 1.65 | 2.39 | 2.02 | 2.17 | 1.8 | 1.21 | 3.05
HCI-016, days in culture: 172 | 2.33 | 1.93 | 1.51 | 1.52 | 1.52 | 1.1 | 1.12 | 1.92
HCI-016, days in culture: 190 | 1.67 | 1.39 | 1.63 | 1.35 | 1.16 | 1.1 | 1.11 | 1.3
HCI-016, days in culture: 199 | 1.49 | 1.49 | 1.44 | 1.47 | 1.68 | 1.21 | 1.18 | 1.73
HCI-017.E2, days in culture: 85 | 2.76 | 2.47 | 2.46 | 2.16 | 2.41 | 1.85 | 1.6 | 2.21
HCI-019, days in culture: 110 | 2.01 | 1.66 | 1.28 | 2.55 | 1.05 | 2.15 | 1.45 | 2.02
HCI-019, days in culture: 131 | 2.46 | 3.61 | 3.38 | 4.08 | 2.65 | 2.93 | 1.89 | 3.71
HCI-019, days in culture: 152 | 2.48 | 2.79 | 2.59 | 1.85 | 1.99 | 2.54 | 1.96 | 2.62
